Our source for the GI50 and TGI values is PubChem BioAssay (NCI).

Among the test systems are MCF7 breast; NCI-H226 lung; SW-620 colon; KM12 colon; NCI-H23 lung; ACHN renal; A549 NSCLC; NCI-H522 lung; EKVX NSCLC; U251 CNS.
Holding throughout (experiment): growth of human tumour cells (NCI), 48 h

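Assay format: 96-well plates, 48-hour exposure. Here, GI50 denotes the concentration required for 50% inhibition of growth. At the TGI there is no net growth.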

In the case of `O=C(Nc1ncc(Cc2ccc(Cl)cc2)s1)c1ccc2c(c1)OCCO2`, the GI50 is 0.0661 µM with MCF7 breast; 0.358 µM with NCI-H226 lung; 0.04 µM with SW-620 colon; 0.0414 µM with KM12 colon; 0.298 µM with NCI-H23 lung; 0.0645 µM in the assay on ACHN renal. Besides, the GI50 with A549 NSCLC was 0.0696 µM; in the assay on NCI-H522 lung, 0.0331 µM; in the assay with EKVX NSCLC, 0.412 µM; in the assay on U251 CNS, 0.0549 µM. For the same molecule, the TGI with MCF7 breast was over 100 µM; in the assay with SW-620 colon it was over 100 µM; in the assay on KM12 colon it was over 58 µM; in the assay on NCI-H23 lung, over 100 µM; with ACHN renal, over 54.5 µM; in the assay with A549 NSCLC it was over 100 µM. The TGI with EKVX NSCLC was over 100 µM; in the assay with U251 CNS, over 45.3 µM.
For the molecule `COc1cc2c3c(n(CCCN4CCOCC4)c(=O)c2cc1OC)-c1cc2c(cc1C3=O)OCO2`, the GI50 is 0.368 µM in the assay with MCF7 breast; 4.6 µM in the assay with NCI-H226 lung; 8.94 µM in the assay on SW-620 colon; 32.4 µM with KM12 colon; 1.97 µM in the assay with NCI-H23 lung; 0.5 µM with ACHN renal. Besides, the GI50 in the assay on A549 NSCLC is 3.43 µM; in the assay with NCI-H522 lung, 3.97 µM; in the assay with EKVX NSCLC, 50.9 µM; in the assay with U251 CNS, 3.56 µM. The TGI in the assay on MCF7 breast was over 36.3 µM; in the assay on NCI-H226 lung, over 81.8 µM; in the assay with SW-620 colon, over 100 µM; in the assay on KM12 colon, over 100 µM; in the assay with NCI-H23 lung, 27.2 µM; with ACHN renal, over 100 µM. Also, the TGI in the assay on A549 NSCLC is over 100 µM; in the assay on NCI-H522 lung it was over 100 µM; in the assay with EKVX NSCLC, over 100 µM; in the assay on U251 CNS it was over 91.6 µM.
Consider `Cc1cc(NC(=O)C(=O)Cc2nc3ccccc3s2)ccc1Cl`, for which the TGI with MCF7 breast, in the assay with NCI-H226 lung, in the assay on SW-620 colon, with KM12 colon, in the assay with NCI-H23 lung and in the assay on ACHN renal was over 100 µM each time. Further, the TGI in the assay with A549 NSCLC, in the assay on NCI-H522 lung, in the assay with EKVX NSCLC and in the assay on U251 CNS was over 100 µM each time.
Regarding `O=C(CN/C=C\C(=O)c1cc(Cl)ccc1Cl)c1ccccc1`, the GI50 was 22.7 µM in the assay with MCF7 breast; 25.5 µM in the assay on NCI-H226 lung; 32 µM in the assay on SW-620 colon; 23.8 µM in the assay on KM12 colon; 19.1 µM in the assay with NCI-H23 lung; over 100 µM with ACHN renal. Besides, the GI50 in the assay on A549 NSCLC is 67 µM; in the assay with NCI-H522 lung, 17.4 µM; in the assay with EKVX NSCLC, 31.1 µM; with U251 CNS, 33.1 µM. The TGI is 51.9 µM in the assay with MCF7 breast; 58.8 µM in the assay with NCI-H226 lung; over 100 µM in the assay on SW-620 colon; 55.3 µM with KM12 colon; 44.2 µM in the assay on NCI-H23 lung; over 100 µM in the assay with ACHN renal. Further, the TGI with A549 NSCLC was over 100 µM; with NCI-H522 lung, 34.8 µM; in the assay on EKVX NSCLC, 99.2 µM; in the assay with U251 CNS, 99.6 µM.
Consider `Cc1cc(Cl)ccc1Nc1nc(C(F)(F)F)ccc1C(=O)N/N=C/c1c(Cl)cccc1Cl`, for which the GI50 in the assay on MCF7 breast was 0.233 µM; in the assay with NCI-H226 lung, 0.243 µM; in the assay on SW-620 colon, 0.322 µM; in the assay on KM12 colon it was 0.254 µM; in the assay with NCI-H23 lung, 0.489 µM; in the assay on ACHN renal it was 0.298 µM. For the same molecule, the GI50 was 0.51 µM with A549 NSCLC, 0.306 µM in the assay with NCI-H522 lung, 0.211 µM in the assay with EKVX NSCLC and 0.245 µM in the assay with U251 CNS. For the same molecule, the TGI in the assay with MCF7 breast is 0.749 µM; with NCI-H226 lung it was 1.74 µM; in the assay with SW-620 colon, over 100 µM; with KM12 colon, 1.92 µM; with NCI-H23 lung, over 100 µM; in the assay with ACHN renal it was 2.03 µM. In addition, the results for the TGI with A549 NSCLC, in the assay with EKVX NSCLC and in the assay with U251 CNS were over 100 µM, 2.97 µM and over 70.8 µM, respectively.
Regarding `OCCCNC(=S)Nc1ccc(-c2nc3ccccc3s2)cc1`, the GI50 with MCF7 breast was 32.5 µM; in the assay with NCI-H226 lung, 18.5 µM; with SW-620 colon, 47.7 µM; in the assay with KM12 colon it was 17.8 µM; in the assay on NCI-H23 lung it was 24.3 µM; in the assay on ACHN renal it was 21.5 µM. Moreover, the GI50 with A549 NSCLC is 33.7 µM; in the assay with NCI-H522 lung it was 12.6 µM; in the assay on EKVX NSCLC it was 17 µM; with U251 CNS, 29.8 µM. In addition, the TGI was over 100 µM in the assay with MCF7 breast; 49.6 µM in the assay with NCI-H226 lung; over 100 µM with SW-620 colon; 46.9 µM with KM12 colon; 60.8 µM with NCI-H23 lung; 47.7 µM with ACHN renal. In addition, the TGI in the assay on A549 NSCLC was over 100 µM; with NCI-H522 lung it was 38.7 µM; with EKVX NSCLC, 83.2 µM; in the assay on U251 CNS it was over 100 µM.
For `Cn1c2ccccc2c(=S)c2cc(NC(=O)CCCCC(=O)Nc3ccc4c(c3)c(=S)c3ccccc3n4C)ccc21`, the TGI in the assay on MCF7 breast, with NCI-H226 lung, with SW-620 colon, in the assay with KM12 colon, in the assay on NCI-H23 lung and in the assay on ACHN renal was over 100 µM throughout. Further, the TGI in the assay on A549 NSCLC, in the assay on NCI-H522 lung, with EKVX NSCLC and with U251 CNS was over 100 µM throughout.
